Assay results published in US11172681B2 (priority 2017, dated 2021).

Assays:
[1] = Physicochemical stability test (thermal storage of technical material in ovens for 2 months); conditions: for Stability at different temperatures: 25-70° C.; for Purity after thermal storage: HPLC
Experimental: Thereafter, technical materials of the two crystalline forms were placed into ovens with temperatures of 25° C., 40° C., 55° C. and 70° C. respectively and left there for 2 months for thermal storage test.

[2] = Synergistic effect with other herbicides

| Stability at different temperatures [1] | Crystalline form after thermal storage ([1]; 25° C.) | Purity after thermal storage ([1]; 25° C.) [%] | Crystalline form after thermal storage ([1]; 40° C.) | Purity after thermal storage ([1]; 40° C.) [%] | Crystalline form after thermal storage ([1]; 55° C.) | Purity after thermal storage ([1]; 55° C.) [%] | Crystalline form after thermal storage ([1]; 70° C.) | Purity after thermal storage ([1]; 70° C.) [%] | Compound | Synergistic effect with one or more listed herbicides [2] |
| --- | --- | --- | --- | --- | --- | --- | --- | --- | --- | --- |
| good stability | Crystalline form A | 96.0 | Crystalline form A | 95.5 | Crystalline form A | 95.1 | Crystalline form A | 94.2 | Cc1nn(C)cc1C(=O)Oc1c(C(=O)c2ccc(C(F)(F)F)cc2S(C)(=O)=O)c(C)nn1C [Crystalline form A of shuangzuocaotong, 1,3-Dimethyl-1H-pyrazole-4-carboxylic acid 4-[2-methanesulfonyl-4-trifluoromethyl-benzoyl]-1,3-dimethyl-1H-pyrazol-5-yl ester] |  |
| good stability | Crystalline form C | 96.0 | Crystalline form C | 95.8 | Crystalline form C | 95.7 | Crystalline form C | 95.2 | Cc1nn(C)cc1C(=O)Oc1c(C(=O)c2ccc(C(F)(F)F)cc2S(C)(=O)=O)c(C)nn1C [Crystalline form C of shuangzuocaotong, 1,3-Dimethyl-1H-pyrazole-4-carboxylic acid 4-[2-methanesulfonyl-4-trifluoromethyl-benzoyl]-1,3-dimethyl-1H-pyrazol-5-yl ester] | obvious synergistic effect |
